# In ChEMBL document CHEMBL4813984, “An original pronucleotide strategy for the simultaneous delivery of two bioactive drugs” (Eur J Med Chem, 2021):
# Columns and labels:
# [1] = Selectivity index, ratio of CC50 for human MT4 cells to EC50 for antiviral activity against HIV-1 infected in human MT4 cells; assay type: toxicity, cell-based; details: read-out: Ratio CC50/EC50
# [2] = Selectivity index, ratio of CC50 for human CEM-SS cells to EC50 for antiviral activity against HIV-1 infected in human CEM-SS cells; assay type: toxicity, cell-based; details: read-out: Ratio CC50/EC50
# [3] = tested on: Human immunodeficiency virus 1; test: Antiviral activity against HIV-1 infected in human MT4 cells assessed as reduction in virus-indued cytopathogenicity incubated for 5 days by MTT assay; assay type: functional, organism-based; details: Human immunodeficiency virus 1, MT4, 120 h
# [4] = tested on: Human immunodeficiency virus 1; test: Antiviral activity against HIV-1 infected in human CEM-SS cells assessed as reduction in viral multiplication by measuring decrease in reverse transcriptase activity incubated for 5 days; assay type: functional, organism-based; details: Human immunodeficiency virus 1, CEM-SS, 120 h
# [5] = Cytotoxicity against human MT4 cells assessed as reduction in cell viability incubated for 5 days by MTT assay; assay type: cell-based; details: time 5 day
# [6] = Cytotoxicity against human CEM-SS cells assessed as reduction in cell viability incubated for 5 days by MTT assay; assay type: cell-based; details: time 5 day
# [7] = tested on: Human immunodeficiency virus 1; test: Antiviral activity against HIV-1 infected in human CEM-SS cells assessed as reduction in viral multiplication by measuring decrease in reverse transcriptase activity incubated for 5 days in presence of AZT; assay type: functional, organism-based; details: Human immunodeficiency virus 1, CEM-SS, 120 h
# [8] = tested on: Human immunodeficiency virus 1; test: Antiviral activity against HIV-1 infected in human CEM-TK(-) cells assessed as reduction in viral multiplication by measuring decrease in reverse transcriptase activity incubated for 6 days in presence of AZT; assay type: functional, organism-based; details: Human immunodeficiency virus 1, CEM-TK(-), 144 h
# [9] = tested on: Human immunodeficiency virus 1; test: Antiviral activity against HIV-1 infected in human CEM-SS cells assessed as reduction in viral multiplication by measuring decrease in reverse transcriptase activity incubated for 5 days in presence of ddA; assay type: functional, organism-based; details: Human immunodeficiency virus 1, CEM-SS, 120 h
# [10] = Selectivity index, ratio of CC50 for human CEM-SS cells to EC50 for antiviral activity against HIV-1 infected in human CEM-SS cells in presence of ddA; assay type: toxicity, cell-based; details: read-out: Ratio CC50/EC50
# [11] = tested on: Human immunodeficiency virus 1; test: Antiviral activity against HIV-1 infected in human MT4 cells assessed as reduction in virus-indued cytopathogenicity incubated for 5 days in presence of ddA by MTT assay; assay type: functional, organism-based; details: Human immunodeficiency virus 1, MT4, 120 h
# [12] = Cytotoxicity against human MT4 cells assessed as reduction in cell viability incubated for 5 days in presence of AZT by MTT assay; assay type: cell-based; details: time 5 day
# [13] = Selectivity index, ratio of CC50 for human MT4 cells to EC50 for antiviral activity against HIV-1 infected in human MT4 cells in presence of AZT; assay type: toxicity, cell-based; details: read-out: Ratio CC50/EC50
# [14] = Cytotoxicity against human MT4 cells assessed as reduction in cell viability incubated for 5 days in presence of ddA by MTT assay; assay type: cell-based; details: time 5 day
# [15] = Selectivity index, ratio of CC50 for human CEM-TK(-) cells to EC50 for antiviral activity against HIV-1 infected in human CEM-TK(-) cells; assay type: toxicity, cell-based; details: read-out: Ratio CC50/EC50
# [16] = Cytotoxicity against human CEM-SS cells assessed as reduction in cell viability incubated for 5 days in presence of ddA by MTT assay; assay type: cell-based; details: time 5 day
# [17] = Selectivity index, ratio of CC50 for human CEM-TK(-) cells to EC50 for antiviral activity against HIV-1 infected in human CEM-TK(-) cells in presence of AZT; assay type: toxicity, cell-based; details: read-out: Ratio CC50/EC50
# [18] = Cytotoxicity against human CEM-SS cells assessed as reduction in cell viability incubated for 5 days in presence of AZT by MTT assay; assay type: cell-based; details: time 5 day
# [19] = Selectivity index, ratio of CC50 for human MT4 cells to EC50 for antiviral activity against HIV-1 infected in human MT4 cells in presence of ddA; assay type: toxicity, cell-based; details: read-out: Ratio CC50/EC50
# [20] = tested on: Human immunodeficiency virus 1; test: Antiviral activity against HIV-1 infected in human MT4 cells assessed as reduction in virus-indued cytopathogenicity incubated for 5 days in presence of AZT by MTT assay; assay type: functional, organism-based; details: Human immunodeficiency virus 1, MT4, 120 h
# [21] = Cytotoxicity against human CEM-TK(-) cells assessed as reduction in cell viability incubated for 5 days by MTT assay; assay type: cell-based; details: time 5 day
# [22] = tested on: Human immunodeficiency virus 1; test: Antiviral activity against HIV-1 infected in human CEM-TK(-) cells assessed as reduction in viral multiplication by measuring decrease in reverse transcriptase activity incubated for 6 days; assay type: functional, organism-based; details: Human immunodeficiency virus 1, CEM-TK(-), 144 h
# [23] = Selectivity index, ratio of CC50 for human CEM-SS cells to EC50 for antiviral activity against HIV-1 infected in human CEM-SS cells in presence of AZT; assay type: toxicity, cell-based; details: read-out: Ratio CC50/EC50
# [24] = Cytotoxicity against human CEM-TK(-) cells assessed as reduction in cell viability incubated for 5 days in presence of AZT by MTT assay; assay type: cell-based; details: time 5 day
Compound,selectivity ratio [1],selectivity ratio [2],EC50 [3] [µM],EC50 [4] [µM],CC50 at 120 h [5] [µM],CC50 at 120 h [6] [µM],CC50 at 120 h [21] [µM],EC50 [22] [µM],also measured
Nc1ncnc2c1ncn2[C@H]1CC[C@@H](CO)O1,> 12,> 55,9,2,> 110,> 110,,,
Nc1ccn([C@H]2CC[C@@H](CO)O2)c(=O)n1 [ZALCITABINE],90,239,2,0.067,180,16,7,0.015,EC50 [7]: 0.016 µM; EC50 [8]: 0.009 µM; EC50 [9]: 0.01 µM; selectivity ratio [10]: 4600; EC50 [11]: 1.2 µM; CC50 at 120 h [12]: 130 µM; selectivity ratio [13]: 15700; CC50 at 120 h [14]: > 100 µM; selectivity ratio [15]: 467; CC50 at 120 h [16]: 46 µM; selectivity ratio [17]: 922; CC50 at 120 h [18]: 46 µM; selectivity ratio [19]: > 83; EC50 [20]: 0.083 µM; selectivity ratio [23]: 2880; CC50 at 120 h [24]: 8.3 µM
Cc1cn([C@H]2C[C@H](N=[N+]=[N-])[C@@H](CO)O2)c(=O)[nH]c1=O [ZIDOVUDINE],8240,> 40000,,0.024,140,> 1000,> 1000,> 100,
